The record followed here is patent US10995071B2, “Method for producing a polymorphic form of 3-[5-amino-4-(3-cyanobenzoyl)-pyrazol-1-yl]-N-cyclopropyl-4-methylbenzamide” (MEREO BIOPHARMA 1 LIMITED, priority 2016, dated 2021).

Format in all cases: physicochemical
The nature of data set [1]: Variable temperature XRPD study. As to the method: The sample was placed in Anton-Paar TTK 450 chamber at 25° C. The temperature was controlled in-situ through the measurement files: p2853-vt, LRP-1301-39-01.dql, LRP-1301-42-01.dql, LRP-1301-42-02.dql. The sample was heated from 25° C. to 200° C. at 1° C./min. XRPD data were collected from 30° C. to 200° C. every 10° C. Approximately 40 mg of the sample was placed in a Ni-coated sample holder under ambient conditions. The sample was loaded at 25° C.
At 200° C., changes (shifts) in peak position in the high 2-theta region were observed. This may be attributed to the thermal expansion effect.

Data set [2] is described as follows: Hygroscopicity of the polymorphic form. The following applies: crystalline anhydrous form.
The nature of data set [3]: Dissolution rate comparison of Form A and Form B in size 1 capsules (FIG. 8). The following applies: 50 mg drug substance/capsule, milled to D50 1-10 μm, compared with Form A. The text has this: The products is milled to D50 1-10 μm.
Data set [4] in a line: Thermodynamic stability of the polymorphic form.
The nature of data set [5]: Solubility profile of the polymorphic form.

On to `Cc1ccc(C(=O)NC2CC2)cc1-n1ncc(C(=O)c2cccc(C#N)c2)c1N` [Form A, 3-[5-amino-4-(3-cyanobenzoyl)-pyrazol-1-yl]-N-cyclopropyl-4-methylbenzamide], for which the “temperature of conversion to Form B on heating” value in data set [1] (heated from 25° C. to 200° C. at 1° C./min) is “above 100 °C”.
In the case of `Cc1ccc(C(=O)NC2CC2)cc1-n1ncc(C(=O)c2cccc(C#N)c2)c1N` [Form B, 3-[5-amino-4-(3-cyanobenzoyl)-pyrazol-1-yl]-N-cyclopropyl-4-methylbenzamide], the hygroscopicity result in data set [2] is reported as “non-hygroscopic”. For the same molecule, the dissolution rate entry in data set [3] is given as “higher dissolution rate than Form A”. For the same molecule, the “form by XRPD after heating to 200° C. and cooling to room temperature” value in data set [1] (cooled to room temperature (20° C.)) was “remained unchanged”. Further, in data set [4], the thermodynamic stability entry is recorded as “thermodynamically stable”. The solubility profile result in data set [5] was “favourable solubility profile”.
